One assay concerns the target T1, PDE4B (Homo sapiens, UniProt Q07343).
T1 construct: hexa-histidine (His6) (N); made in house
Nature of the assay: PDE4 IMAP Assay. Particulars: 2 h; Activity at 10 μM; catalytic domain of PDE4B; read-out: PDE IMAP Assay. The assay is classed as biochemical. From the text: Compounds may be screened for functional potency in in vitro biochemical assays for their ability to inhibit the activity of phosphodiesterase (PDE) enzymes. A commercial PDE assay, Molecular Device's PDE IMAP assay, was modified and utilized to measure the inhibitory activity of compounds on PDE isoforms. The IMAP technology is based on the high affinity binding of phosphate by immobilized metal (MIII) coordination complexes on nanoparticles. This IMAP “binding reagent” complexes with phosphate groups on the nucleotide monophosphates generated in the reaction. Such binding causes a change in the rate of the molecular motion of the nucleotide, and results in an increase in the fluorescence polarization value observed for the fluorescent label attached to the substrate. PDE inhibitors prevent the generation of nucleotide monophosphates and the subsequent increase in polarization value observed for the fluorescent label attached to the substrate. The catalytic domain of PDE4B was fused to an amino-terminus hex-histadine affinity tag and purified. PDE4B enzyme was incubated with compounds for 10 minutes. Fluorescently labeled cyclic AMP substrates were then added to the PDE enzyme mix and incubated for 2 hours at room temperature. IMAP binding reagent was then added to the enzyme mix, incubated for 10-30 minutes and fluorescent polarization of the fluorescently labeled substrate was read either with the Perkin Elmer Viewlux or Molecular Devices Acquest or Analyst. Roflumilast and Rolipram are the positive controls used in the assay.

The test system of another assay is PDE4. Nature of the assay: PDE4 Cellular CNG Assay. The class given is cell-based. Conditions: Activity at 10 μM; HEK293 cells stably expressing the CNG channel. From the text: Compounds may be screened for functional potency in in vitro cellular assays for their ability to inhibit the activity of phosphodiesterase (PDE) enzymes. A commercial membrane potential assay, Molecular Device's membrane potential assay kit, was modified and utilized to measure the inhibitory activity of compounds on PDE isoforms in living cells. The cellular assay utilizes genetically engineered cyclic nucleotide-gated (CNG) channels as cyclic-AMP (cAMP) sensors. On binding cAMP these ion channels open, allowing the flow of cations across the plasma membrane. CNG channel activity can be monitored by measuring Ca^2+ influx in cell populations. The influx of Ca causes a change in membrane potential that is measured by voltage sensitive dyes. PDE inhibitors prevent the degradation of cAMP that is generated by adenylyl cyclases that are activated upon stimulation of G protein-coupled receptors (GPCR) linked to the cAMP pathway. In brief, Molecular Device's membrane potential dye was added to HEK293 cells stably expressing the CNG channel and incubated for 2 hours at room temperature. Test compounds were then added to the cells and incubated for 15 minutes. A GPCR agonist was then added to the cells to stimulate the cAMP pathway and incubated for 45 minutes. Fluorescent measurements were then conducted with either the Molecular Devices Acquest or Analyst. PDE inhibitors will inhibit the degradation of cAMP and cause an increase in fluorescent signal. Roflumilast and Rolipram are the positive controls used in the assay.

Bounds are passed on as bounds.

T1 sequence (Q07343 330-659 limits assumed, species assumed): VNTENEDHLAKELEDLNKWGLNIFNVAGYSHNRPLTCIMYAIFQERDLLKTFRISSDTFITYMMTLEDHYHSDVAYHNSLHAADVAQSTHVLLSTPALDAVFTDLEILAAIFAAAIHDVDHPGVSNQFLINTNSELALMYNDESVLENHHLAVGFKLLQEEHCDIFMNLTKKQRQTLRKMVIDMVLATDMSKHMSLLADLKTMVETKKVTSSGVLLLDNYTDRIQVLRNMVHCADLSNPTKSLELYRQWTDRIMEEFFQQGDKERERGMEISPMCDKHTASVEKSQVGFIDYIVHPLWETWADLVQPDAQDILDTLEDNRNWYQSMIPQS

With `NC(=O)CSc1nc2sc3c(c2c(=O)n1C1CCCC1)CCCC3` [Example 1, 2-(3-Cyclopentyl-4-oxo-3,4,5,6,7,8-hexahydro-benzo[4]thieno[2,3-d]pyrimidin-2-ylsulfanyl)-acetamide], the inhibition at 10 µM at PDE4B is ≥ 50%. Moreover, the “Cellular CNG Assay” value in the assay with PDE4 was “+ (+indicates Activity ≧ 50% at 10 μM)”.

As for `CCNc1nc(NCC)n2c(SCc3nc4ccccc4c(=O)[nH]3)nnc2n1` [Example 2, 2-((5,7-Bis(ethylamino)-[1,2,4]triazolo[4,3-a][1,3,5]-triazin-3-ylthio)methyl)quinazolin-4(3H)-one], on PDE4B, the inhibition at 10 µM is ≥ 50%. In the assay on PDE4, the “Cellular CNG Assay” value is given as “+ (+indicates Activity ≧ 50% at 10 μM)”.

Consider `COc1ccc(CN(Cc2ccncc2)C(=O)c2ccc3[nH]c(C)c(C)c3c2)cc1OC` [Example 3, N-(3,4-dimethoxybenzyl)-2,3-dimethyl-N-(pyridin-4-ylmethyl)-1H-indole-5-carboxamide], for which, on PDE4B, the inhibition at 10 µM was ≥ 50%. The “Cellular CNG Assay” value in the assay on PDE4 is “+ (+indicates Activity ≧ 50% at 10 μM)”.

Regarding `COc1ccc(CN(C(=O)c2cccc3ccccc23)C2CCCC2)cc1OC(C)C` [Example 4, N-cyclopentyl-N-(3-isopropoxy-4-methoxybenzyl)-1-naphthamide], on PDE4B, the inhibition at 10 µM is ≥ 50%. Moreover, in the assay on PDE4, the “Cellular CNG Assay” value was “+ (+indicates Activity ≧ 50% at 10 μM)”.

In the case of `COc1ccc(CN(C)C(=O)c2cnn(-c3nccc(-c4cccs4)n3)c2C)cc1OC` [Example 5, N-(3,4-dimethoxybenzyl)-N,5-dimethyl-1-(4-(thiophen-2-yl)pyrimidin-2-yl)-1H-pyrazole-4-carboxamide], the inhibition at 10 µM on PDE4B was ≥ 50%. Besides, the “Cellular CNG Assay” value with PDE4 is reported as “+ (+indicates Activity ≧ 50% at 10 μM)”.

As to `CCc1cccc(C)c1Nc1cc(NCCc2ccc(OC)c(OC)c2)ncn1` [Example 6, N4-(3,4-dimethoxyphenethyl)-N6-(2-ethyl-6-methylphenyl)pyrimidine-4,6-diamine], on PDE4B, the inhibition at 10 µM was ≥ 50%. In addition, in the assay with PDE4, the “Cellular CNG Assay” value is listed as “+ (+indicates Activity ≧ 50% at 10 μM)”.

`Cc1ccc(S(=O)(=O)c2nnn3c2nc(NC(C)C)c2sccc23)cc1` [Example 7, N-isopropyl-3-tosylthieno[2,3-e][1,2,3]triazolo[1,5-a]pyrimidin-5-amine]: the inhibition at 10 µM on PDE4B was ≥ 50%. Further, the “Cellular CNG Assay” value with PDE4 was “− (−indicates Activity < 50% at 10 μM)”.

For `CC(C)c1nc2sc3c(NCCCO)ncnc3c2c2c1COC(C)(C)C2` [Example 8, 3-(5-Isopropyl-2,2-dimethyl-1,4-dihydro-2H-3-oxa-7-thia-6,9,11-triazabenzo[c]fluoren-8-ylamino)-propan-1-ol], the inhibition at 10 µM at PDE4B was ≥ 50%. The “Cellular CNG Assay” value with PDE4 was “+ (+indicates Activity ≧ 50% at 10 μM)”.

As for `N#Cc1sc2nc(C3CC3)cc(-c3ccc(F)cc3)c2c1N` [Example 9, 3-Amino-6-cyclopropyl-4-(4-fluorophenyl)thieno[2,3-b]pyridine-2-carbonitrile], the inhibition at 10 µM on PDE4B was ≥ 50%. Further, the “Cellular CNG Assay” value with PDE4 was “+ (+indicates Activity ≧ 50% at 10 μM)”.

As to `COc1ccc(S(=O)(=O)N2CC(C)(C)Oc3ccc(NC(=O)c4cccnc4SC)cc32)cc1OC` [Example 10, N-(4-(3,4-dimethoxyphenylsulfonyl)-2,2-dimethyl-3,4-dihydro-2H-benzo[b][1,4]oxazin-6-yl)-2-(methylthio)nicotinamide], the inhibition at 10 µM on PDE4B was ≥ 50%. For the same molecule, the “Cellular CNG Assay” value in the assay on PDE4 is recorded as “+ (+indicates Activity ≧ 50% at 10 μM)”.

For `COc1ccc(S(=O)(=O)N2CC(C)(C)Oc3ccc(NC(=O)c4ccccc4OC)cc32)cc1OC` [Example 11, N-(4-(3,4-dimethoxyphenylsulfonyl)-2,2-dimethyl-3,4-dihydro-2H-benzo[b][1,4]oxazin-6-yl)-2-methoxybenzamide], the inhibition at 10 µM on PDE4B is ≥ 50%. The “Cellular CNG Assay” value in the assay with PDE4 was “+ (+indicates Activity ≧ 50% at 10 μM)”.

On to `COc1ccc(NC(=O)c2ccccc2C(F)(F)F)cc1OC1CCCC1` [Example 12, N-(3-(cyclopentyloxy)-4-methoxyphenyl)-2-(trifluoromethyl)benzamide], for which, on PDE4B, the inhibition at 10 µM was ≥ 50%. In the assay on PDE4, the “Cellular CNG Assay” value is reported as “+ (+indicates Activity ≧ 50% at 10 μM)”.

For `CSc1nc(NC2CCCCC2)c2sccc2n1` [Example 13, N-cyclohexyl-2-(methylthio)thieno[3,2-d]pyrimidin-4-amine], the inhibition at 10 µM at PDE4B is ≥ 50%. The “Cellular CNG Assay” value in the assay with PDE4 is recorded as “+ (+indicates Activity ≧ 50% at 10 μM)”.

In the case of `CCOc1ccccc1C(=O)Nc1c2c(nn1-c1cccc(Cl)c1)CS(=O)(=O)C2` [Example 14], the inhibition at 10 µM on PDE4B is ≥ 50%. Moreover, in the assay on PDE4, the “Cellular CNG Assay” value is given as “− (−indicates Activity < 50% at 10 μM)”.

Regarding `CC(C)n1c(=O)c(=O)n(Cc2cccc(C(F)(F)F)c2)c2cc(S(C)(=O)=O)ccc21` [Example 15, 1-Isopropyl-6-(methylsulfonyl)-4-(3-(trifluoromethyl)benzyl)quinoxaline-2,3(1H,4H)-dione], on PDE4B, the inhibition at 10 µM is ≥ 50%. The “Cellular CNG Assay” value with PDE4 was “+ (+indicates Activity ≧ 50% at 10 μM)”.

`COC(=O)c1ccc(Cn2c(=O)c(=O)n(C(C)C)c3ccc(C(F)(F)F)cc32)cc1` [Example 16, Methyl 4-((4-isopropyl-2,3-dioxo-7-(trifluoromethyl)-3,4-dihydroquinoxalin-1(2H)-yl)methyl)benzoate]: the inhibition at 10 µM on PDE4B was ≥ 50%. Also, the “Cellular CNG Assay” value in the assay with PDE4 was “+ (+indicates Activity ≧ 50% at 10 μM)”.

`CCOC(=O)N1CCN(C(=O)c2cnn3c(C(F)(F)F)cc(-c4ccc(OC)c(OC)c4)nc23)CC1` [Example 17, Ethyl 4-(5-(3,4-dimethoxyphenyl)-7-(trifluoromethyl)pyrazolo[1,5-a]pyrimidine-3-carbonyl)piperazine-1-carboxylate]: the inhibition at 10 µM on PDE4B is ≥ 50%. Besides, the “Cellular CNG Assay” value in the assay with PDE4 is “+ (+indicates Activity ≧ 50% at 10 μM)”.

In the case of `COc1ccc(-c2cc(C(F)(F)F)n3ncc(C(=O)Nc4cccc(CCC#N)c4)c3n2)cc1OC` [Example 18, N-(3-(2-cyanoethyl)phenyl)-5-(3,4-dimethoxyphenyl)-7-(trifluoromethyl)pyrazolo[1,5-a]pyrimidine-3-carboxamide], the inhibition at 10 µM on PDE4B was ≥ 50%. Moreover, the “Cellular CNG Assay” value in the assay with PDE4 is on record as “+ (+indicates Activity ≧ 50% at 10 μM)”.

Take `O=C(c1cccc(N2CCNC2=O)c1)N(CCC1=CCCCC1)Cc1cc2cc3c(cc2nc1N1CCOCC1)OCO3` [Example 19, N-(2-cyclohexenylethyl)-N-((6-morpholino-[1,3]dioxolo[4,5-g]quinolin-7-yl)methyl)-3-(2-oxoimidazolidin-1-yl)benzamide]: the inhibition at 10 µM on PDE4B is ≥ 50%. The “Cellular CNG Assay” value with PDE4 is listed as “+ (+indicates Activity ≧ 50% at 10 μM)”.

Turning to `CCOc1ncccc1C(=O)Nc1ccc(S(=O)(=O)Nc2nccs2)cc1` [Example 20, 2-Ethoxy-N-(4-(N-thiazol-2-ylsulfamoyl)phenyl)nicotinamide], the inhibition at 10 µM on PDE4B is ≥ 50%. Besides, in the assay on PDE4, the “Cellular CNG Assay” value was “+ (+indicates Activity ≧ 50% at 10 μM)”.

As to `O=c1n(Cc2ccncc2)nc2c3ccccc3nc(C3CC3)n12` [Example 21, 5-Cyclopropyl-2-(pyridin-4-ylmethyl)-[1,2,4]triazolo[4,3-c]quinazolin-3(2H)-one], the inhibition at 10 µM on PDE4B was ≥ 50%. In the assay with PDE4, the “Cellular CNG Assay” value was “+ (+indicates Activity ≧ 50% at 10 μM)”.

As to `COc1ccc(-c2cnnn2-c2ccc(NC(=O)c3c(F)cccc3F)cc2)cc1OC` [Example 22, N-(4-(5-(3,4-dimethoxyphenyl)-1H-1,2,3-triazol-1-yl)phenyl)-2,6-difluorobenzamide], the inhibition at 10 µM at PDE4B is ≥ 50%. Moreover, the “Cellular CNG Assay” value with PDE4 was “+ (+indicates Activity ≧ 50% at 10 μM)”.

Turning to `COc1ccc(-c2cnnn2-c2ccc(NC(=O)c3ccc4c(c3)OCO4)cc2)cc1OC` [Example 23, N-(4-(5-(3,4-dimethoxyphenyl)-1H-1,2,3-triazol-1-yl)phenyl)benzo[d][1,3]dioxole-5-carboxamide], on PDE4B, the inhibition at 10 µM is ≥ 50%. For the same molecule, in the assay on PDE4, the “Cellular CNG Assay” value is “+ (+indicates Activity ≧ 50% at 10 μM)”.

As to `COc1ccc(-c2cn3ccnc3c(NCc3ccccc3)n2)cc1OC` [Example 24, N-benzyl-6-(3,4-dimethoxyphenyl)imidazo[1,2-a]pyrazin-8-amine], the inhibition at 10 µM at PDE4B is ≥ 50%.

The record behind these values is patent US20090275586A1, “HETEROCYCLIC INHIBITORS OF PDE4” (KALYPSYS, INC., priority 2006, published 2009).
